Biological target: T1, NMDA receptor (Rattus norvegicus, UniProt P35439)
T1 construct: After the rats were decapitated, the prefrontal cortex and hippocampus were rapidly separated on ice; from tissue; host or cells: SD male rat prefrontal cortex and hippocampus, crude synaptosomes
Assay: Inhibition of [3H]-MK-801 binding to rat crude synaptosomes (receptor ligand binding assay)
Conditions: not given
Protocol: The affinity of the tested compounds on NMDA receptor was researched by receptor ligand binding assays.
Ten SD male rats of SPF grade were ordered and acclimated for 7 days for future use.
(§1) After the rats were decapitated, the prefrontal cortex and hippocampus were rapidly separated on ice and weighed, 10 volumes of 50 mM Tris-HCl buffer (50 mM Tris-HCl, 5 mM MgCl2·6H2O, 1 mM EDTA, 0.5% (W/V) BSA, 1 mM PMSF, 0.32 M sucrose, pH 7.4) was added, and the mixture was homogenized for five times at 1500 revolutions/min with 30 s each time. A homogenate was centrifuged for 10 min at 1000×g, and a supernatant was taken and centrifuged for 10 min at 40,000×g, the precipitates were collected, re-suspended with volumes of Tris-HCl buffer, incubated at 37° C. for 10 min, and centrifuged for 10 min at 40,000×g, finally the precipitates were re-suspended with the above buffer, aliquoted and stored at −80° C. for later use.
(2) Detection of Inhibitory Function of Tested Medicines on Binding of Crude Synaptosomes in Rats to [^3H]-MK-801
50 μg of rat crude synaptosomal proteins was added to all tubes respectively. A volume of 50 μl of MK-801 (dizocilpine) was added to a non-specific binding tube to achieve a final concentration of 100 μM, and the materials were reacted for 15 min in advance. 20 μL of control drug at corresponding concentration was added to the test tube for reaction for 15 min. A volume of 30 μl of labeled ligand [^3H]-MK-801 was successively added to all tubes to achieve a final concentration of 10 nM. All reaction tubes were supplemented to a volume of 200 μl with 50 mM Tris-HCl buffer (50 mM Tris-HCl, 5 mM MgCl2·6H2O, 1 mM EDTA, 0.5% (WN) BSA, 0.1% NaN3, pH 7.4). A reaction was carried out at 37° C. for 10 min. A type-49 glass fiber filter membrane was prepared and a sample was applied at the same time. The filter membrane was placed in a multi-head cell collector, and a reaction system was subjected to suction filtration under negative pressure and washed with an ice-cold 50 mM Tris-HCl buffer, 10 ml each time, for a total of 5 times. After suction drying, 1 ml of scintillation liquid was added to the filter membrane, the filter membrane was placed on a shaker for shaking for 1.5 h and then placed in a liquid scintillation counter on the next day to determine the radioactive intensity.
GraphPad5.0 software was used to analyze the data, and the percentage of competitive inhibition was calculated through nonlinear fitting, wherein:
Percentage of competitive inhibition %=((total binding tube cpm−compound cpm)/(total binding tube cpm−non-specific binding tube cpm))×100%;
Specific binding amount=total binding amount−non-specific binding amount, wherein each binding site was determined by double compound tubes.

Row | SMILES | IC50 [pM]
1 | CC(C)C(=O)N1CCSC12CNC2.Cl [A-093] | 480

Same assay, conditions: affinity on NMDA; [3H]-MK-801 10 nM, rat prefrontal cortex and hippocampus crude synaptosomes; read-out: IC50

Row | SMILES | IC50 [pM]
2 | CC(=O)N1CCSC12CN(C(=O)[C@@H](N)[C@@H](C)O)C2.Cl [A-066] | 350
3 | Cl.N[C@@H](CO)C(=O)N1CC2(C1)NCCS2 [A-007] | 890
4 | C[C@@H](O)[C@H](N)C(=O)N1CCC2(CC1)NCCS2.Cl [A-034] | 890
5 | CC(=O)N1CCSC12CCN(C(=O)[C@@H](N)[C@@H](C)O)CC2.Cl [A-082] | 890
6 | C[C@@H](O)[C@H](N)C(=O)N1CCC2(C1)NCCS2.Cl (stereo partly shown) [A-020] | 250
7 | C[C@@H](O)[C@H](N)C(=O)N1CC2(C1)NCCS2.Cl [A-006] | 440
8 | CC(C)[C@H](N)C(=O)N1CC2(C1)NCCS2.Cl [A-008] | 890
9 | CC(C)C(=O)N1CCSC12CN(C(=O)[C@@H](N)[C@@H](C)O)C2.Cl [A-098] | 980

Tested on: not listed separately
Assay: In-vivo metabolism (pharmacokinetic) study in rats, oral / tail intravenous
Conditions: male, SD, rat, plasma; oral 10 mg/kg vs intravenous 1 mg/kg, rats
Protocol: The pharmacokinetic parameters such as exposure of plasma concentrations of the compounds of examples were evaluated by oral/tail intravenous injection model tests in rats in order to evaluate the in-vivo metabolic stability in rats.
The male SD rats weighing 200±20 g and being SPF grade were used in this experiment and purchased from SPF.
Preparation of intravenous solution: 1 mg of each tested medicine was weighed accurately, and a volume was metered to 5 mL with 0.9% sodium chloride solution to prepare 0.2 mg/mL. A dose volume was 1 mL for per 200 g of weight, and the dose was 1 mg for per 1 kg of weight based on the concentration conversion.
Preparation of intragastric solution: 10 mg of each tested medicine was accurately weighed, and a volume was metered to 10 mL with 0.9% sodium chloride solution to prepare 1 mg/mL of the solution. A dose volume was 2 mL for per 200 g of weight, and the dose was 10 mg for per 1 kg of weight based on the concentration conversion.
Rats were randomly divided into 8 groups, 6 rats were in each group, oral gavage administration and tail intravenous administration were performed according to the above doses. About 0.2 mL of orbital blood was collected before administration and at 2 min, 5 min, 15 min, 30 min, 1 h, 2 h, 3 h, 4 h and 6 h after administration, respectively, and centrifuged at 3000 rpm for 10 min at 4° C., and a supernatant was taken for LC/MS/MS determination. A DAS pharmacokinetics program was used to analyze the measured data and calculate the main pharmacokinetic parameters.

Row | SMILES | bioavailability [%]
10 | CC(=O)N1CCSC12CN(C(=O)[C@@H](N)[C@@H](C)O)C2.Cl [A-066] | 54.5
11 | CC(=O)N1CCSC12CCN(C(=O)[C@@H](N)[C@@H](C)O)CC2.Cl [A-082] | 19.6
12 | C[C@@H](O)[C@H](N)C(=O)N1CC2(C1)NCCS2.Cl [A-006] | 21.2
13 | CC(C)C(=O)N1CCSC12CN(C(=O)[C@@H](N)[C@@H](C)O)C2.Cl [A-098] | 19.1

Same assay, conditions: rat; Intravenous injection, 1 mg/kg, male SD rats, plasma

Row | SMILES | AUC(0-t) [ng·h/mL] | Cmax [ng/mL]
14 | CC(=O)N1CCSC12CN(C(=O)[C@@H](N)[C@@H](C)O)C2.Cl [A-066] | 1380 | 1690
15 | CC(=O)N1CCSC12CCN(C(=O)[C@@H](N)[C@@H](C)O)CC2.Cl [A-082] | 6850 | 18300
16 | C[C@@H](O)[C@H](N)C(=O)N1CC2(C1)NCCS2.Cl [A-006] | 16500 | 11600
17 | CC(C)C(=O)N1CCSC12CN(C(=O)[C@@H](N)[C@@H](C)O)C2.Cl [A-098] | 952 | 1090

Same assay, conditions: rat; Oral, 10 mg/kg, male SD rats, plasma

Row | SMILES | AUC(0-t) [ng·h/mL] | Cmax [ng/mL]
18 | CC(=O)N1CCSC12CN(C(=O)[C@@H](N)[C@@H](C)O)C2.Cl [A-066] | 7560 | 2080
19 | CC(=O)N1CCSC12CCN(C(=O)[C@@H](N)[C@@H](C)O)CC2.Cl [A-082] | 13400 | 5580
20 | C[C@@H](O)[C@H](N)C(=O)N1CC2(C1)NCCS2.Cl [A-006] | 35000 | 18400
21 | CC(C)C(=O)N1CCSC12CN(C(=O)[C@@H](N)[C@@H](C)O)C2.Cl [A-098] | 1820 | 767

Biological target: T1, NMDA receptor
Assay: NMDA receptor agonistic properties in rat crude synaptosomal proteins (maximum [3H]-MK-801 binding vs 1 mM glycine)
Assay type: biochemical
Conditions: maximum [3H]-MK-801 binding % relative to 1 mM glycine; 50 μM glutamic acid
Protocol: as §1
(3) Detection of Influence of Tested Medicines on NMDA Receptor Agonistic Properties in Rat Crude Synaptosomal Proteins
100 μg of rat crude synaptosomal proteins was added to all tubes respectively. 50 μl of 5,7-dichlorokynurenic acid was added to a non-specific binding tube to achieve a final concentration of 10 μM. All tubes were preloaded with 50 μM of glutamic acid, and the materials were reacted for 15 min in advance. 20 μL of control drug at corresponding concentration was added to the test tube, and then reacted for 15 min. 1 mM glycine was added to the maximum reaction tube. A volume of 30 μl of labeled ligand [^3H]-MK-801 was successively added to all tubes to achieve a final concentration of 10 nM, and reacted for 15 min. All reaction tubes were supplemented to a volume of 500 μl with 50 mM Tris-HCl buffer (50 mM Tris-HCl, 5 mM MgCl2·6H2O, 1 mM EDTA, 0.5% (WN) BSA, 0.1% NaN3, pH 7.4). A reaction was carried out at 37° C. for 15 min. A type-49 glass fiber filter membrane was prepared and a sample was applied at the same time. The filter membrane was placed in a multi-head cell collector, and the reaction system was subjected to suction filtration under negative pressure and washed with an ice-cold 50 mM Tris-HCl buffer, 10 ml each time, for a total of 5 times. After suction drying, 1 ml of scintillation liquid was added to the filter membrane, the filter membrane was placed on the shaker for shaking for 1.5 h and then placed in the liquid scintillation counter on the next day to determine the radioactive intensity.
In an agonistic experiment, maximum [^3H]-MK-801 binding %=((tested compounds cpm−5,7 dichlorokynurenic acid cpm)/(1 mM glycine cpm−5,7 dichlorokynurenic acid cpm))×100%.

Row | SMILES | Maximum agonistic efficacy (%)
22 | CC(=O)N1CCSC12CN(C(=O)[C@@H](N)[C@@H](C)O)C2.Cl [A-066] | 29
23 | Cl.N[C@@H](CO)C(=O)N1CC2(C1)NCCS2 [A-007] | 56
24 | C[C@@H](O)[C@H](N)C(=O)N1CCC2(CC1)NCCS2.Cl [A-034] | 25
25 | CC(=O)N1CCSC12CCN(C(=O)[C@@H](N)[C@@H](C)O)CC2.Cl [A-082] | 45
26 | C[C@@H](O)[C@H](N)C(=O)N1CCC2(C1)NCCS2.Cl (stereo partly shown) [A-020] | 42
27 | C[C@@H](O)[C@H](N)C(=O)N1CC2(C1)NCCS2.Cl [A-006] | 32
28 | CC(C)[C@H](N)C(=O)N1CC2(C1)NCCS2.Cl [A-008] | 35
29 | CC(C)C(=O)N1CCSC12CN(C(=O)[C@@H](N)[C@@H](C)O)C2.Cl [A-098] | 28
30 | CC(C)C(=O)N1CCSC12CNC2.Cl [A-093] | 65

Tested on: rats
Assay: Forced swimming test in rats
Assay type: in vivo
Conditions: Rattus norvegicus, 48 h, Po, Day 2, *P<0.05, **P<0.01 compared with the control group, read-out: Reduction percentage (%) of floating time, Day 2
Protocol: Pharmacodynamic evaluation was performed by the forced swimming tests in rats. The experimental animals were male SD rats weighing 150 g-180 g and being SPF grade, and acclimated for one week after purchase, and then subjected to forced swimming tests, the rats need be fasted for 12 hours before the tests. The compounds of examples were dissolved with normal saline, and blank control group (normal saline) and example compound administration group were established. 8-10 rats were provided for each group. On the day before the tests, the rats were placed in a glass cylinder with a height of 40 cm, an inner diameter of 18 cm, and a water depth of 23 cm for pre-swimming for 15 min, and a water temperature was 28° C. After the pre-swimming the rats were removed, wiped with a dry cloth, and dried with an electrical heater, then returned to a rearing cage, and administered. A formal forced swimming test was performed on the next day for a total of 5 min. The accumulated immobility time within 5 min was recorded, and a second forced swimming test was performed on the seventh day; the criteria for determining immobility were that the rats stopped struggling in the water, were in a floating state, and had only slight limb movements to keep the head floating on the water surface. The results are shown in Table 4, and the experimental data were statistically analyzed by GraphPad Prism 5.0 software.

Row | SMILES | inhibition in vivo at 0.1 mg/kg [%]
31 | CC(=O)N1CCSC12CN(C(=O)[C@@H](N)[C@@H](C)O)C2.Cl [A-066] | 68
32 | Cl.N[C@@H](CO)C(=O)N1CC2(C1)NCCS2 [A-007] | 35.1
33 | C[C@@H](O)[C@H](N)C(=O)N1CCC2(CC1)NCCS2.Cl [A-034] | 71.9
34 | C[C@@H](O)[C@H](N)C(=O)N1CCC2(C1)NCCS2.Cl (stereo partly shown) [A-020] | 51.8
35 | C[C@@H](O)[C@H](N)C(=O)N1CC2(C1)NCCS2.Cl [A-006] | 36.4
36 | CC(C)[C@H](N)C(=O)N1CC2(C1)NCCS2.Cl [A-008] | 54.9
37 | CC(C)C(=O)N1CCSC12CN(C(=O)[C@@H](N)[C@@H](C)O)C2.Cl [A-098] | 64.5

Same assay, conditions: Rattus norvegicus, 168 h, Po, Day 7, *P<0.05, **P<0.01 compared with the control group, read-out: Reduction percentage (%) of floating time, Day 7

Row | SMILES | inhibition in vivo at 0.1 mg/kg [%]
38 | CC(=O)N1CCSC12CN(C(=O)[C@@H](N)[C@@H](C)O)C2.Cl [A-066] | 55.3
39 | Cl.N[C@@H](CO)C(=O)N1CC2(C1)NCCS2 [A-007] | 32.4
40 | C[C@@H](O)[C@H](N)C(=O)N1CCC2(CC1)NCCS2.Cl [A-034] | 60.1
41 | C[C@@H](O)[C@H](N)C(=O)N1CCC2(C1)NCCS2.Cl (stereo partly shown) [A-020] | 59.3
42 | C[C@@H](O)[C@H](N)C(=O)N1CC2(C1)NCCS2.Cl [A-006] | 22.2
43 | CC(C)[C@H](N)C(=O)N1CC2(C1)NCCS2.Cl [A-008] | 57.3
44 | CC(C)C(=O)N1CCSC12CN(C(=O)[C@@H](N)[C@@H](C)O)C2.Cl [A-098] | 13.9

Source: US20230348493A1, “COMPOUND FOR ADJUSTING ACTIVITY OF NMDA RECEPTOR, AND PHARMACEUTICAL COMPOSITION AND USE THEREOF” (BEIJING GREATWAY PHARMACEUTICAL TECHNOLOGY CO., LTD., priority 2020, published 2023)
